Results reported in US8071581B2, “Triazolopyridazine protein kinase modulators” (SGX Pharmaceuticals, Inc., priority 2006, dated 2011).

Columns and labels:
[1] = biological target: MET kinase (c-MET), kinase domain of human Met (Homo sapiens, UniProt P08581); experiment: MET luminescence-based enzyme assay (Kinase-Glo)
GTL16 = GTL16 cell assay (EC50); type: cell-based; conditions: Homo sapiens, GTL 16
Experimental: Compounds were tested in the following assays in duplicate. 96-well XTT assay: Cells were grown in growth media containing various concentrations of compounds (duplicates) on a 96-well flat bottom plate for 72 hours at 37° C. in 5% CO2. The starting cell number was 5000 cells per well and volume was 120 μl. At the end of the 72-hour incubation, 40 μl of XTT labeling mixture (50:1 solution of sodium 3′-[1-(phenylaminocarbonyl)-3,4-tetrazolium]-bis(4-methoxy-6-nitro) benzene sulfonic acid hydrate and Electron-coupling reagent: PMS (N-methyl dibenzopyrazine methyl sulfate) were added to each well of the plate. After an additional 2-6 hours […] with a spectrophotometer.

MET kinase (c-MET), kinase domain of human Met, sequence (P08581 1078-1345 limits assumed): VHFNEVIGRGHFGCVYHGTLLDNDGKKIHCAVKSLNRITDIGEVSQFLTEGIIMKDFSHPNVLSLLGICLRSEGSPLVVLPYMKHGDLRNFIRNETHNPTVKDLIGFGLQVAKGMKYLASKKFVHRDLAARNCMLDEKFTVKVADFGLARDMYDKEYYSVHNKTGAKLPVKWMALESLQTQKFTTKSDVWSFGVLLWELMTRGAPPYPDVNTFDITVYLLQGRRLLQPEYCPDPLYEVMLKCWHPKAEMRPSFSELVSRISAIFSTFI

SMILES | IC50 [1] | EC50 (GTL16; Table 2) | EC50 (GTL16; Table 1)
Cc1ccc2nnc(Cc3cc4cc(-c5cnn(C)c5)cnc4cc3F)n2n1 [compound 158] | < 100 nM | < 100 nM | 
Nc1nc2ccc(Cc3nnc4ccc(-c5ccccc5)nn34)cc2s1 [compound 42] | 100 to 1000 nM |  | 1000 to 10000 nM
Cc1ccc2nnc(Cc3ccc4ncc(-c5cccc(C(=O)O)c5)cc4c3)n2n1 [compound 135] | 100 to 1000 nM | 1000 to 10000 nM | 
Cn1cc(-c2ccc3nnc(Cc4c(F)cc5ncccc5c4F)n3n2)cn1 [compound 87] | < 100 nM |  | < 100 nM
CNc1ccc(-c2ccc3nnc(Cc4ccc5ncccc5c4)n3n2)cc1 [compound 65] | < 100 nM |  | < 100 nM
CC(=O)Nc1ccc(-c2ccc3nnc(Cc4ccc5ncccc5c4)n3n2)cc1 [compound 52] | < 100 nM |  | 100 to 1000 nM
Fc1cc(F)cc(-c2ccc3nnc(Cc4ccc5ncccc5c4)n3n2)c1 [compound 70] | < 100 nM |  | 100 to 1000 nM
CNc1ccc2nnc(Cc3ccc4ncc(-c5cnn(C)c5)cc4c3)n2n1 [compound 160] | < 100 nM | < 100 nM | 
Cc1ccc2nnc(Cc3ccc4ncc(-c5cn[nH]c5)cc4c3)n2n1 [compound 125, 6-(6-Methyl-[1,2,4]triazolo[4,3-b]pyridazin-3-ylmethyl)-3-(1H-pyrazol-4-yl)-quinoline] | < 100 nM | 100 to 1000 nM | 
CC(C)NC(=O)c1ccc(-c2ccc3nnc(Cc4ccc5ncsc5c4)n3n2)cc1F [compound 95] | < 100 nM |  | 100 to 1000 nM
CCc1ccc2nnc(Cc3ccc4ncc(-c5cnn(C)c5)cc4c3)n2n1 [compound 157, 6-(6-Ethyl-[1,2,4]triazolo[4,3-b]pyridazin-3-ylmethyl)-3-(1-methyl-1H-pyrazol-4-yl)-quinoline] | < 100 nM | < 100 nM | 
Fc1ccc(Oc2ccc3nnc(Cc4ccc5ncccc5c4)n3n2)cc1 [compound 6] | 100 to 1000 nM |  | 100 to 1000 nM
c1ccc(-c2ccc3nnc(Cc4ccc5nc[nH]c5c4)n3n2)cc1 [compound 45, 3-(3H-Benzoimidazol-5-ylmethyl)-6-phenyl-[1,2,4]triazolo[4,3-b]pyridazine] | 100 to 1000 nM |  | 100 to 1000 nM
Cc1ccc2nnc(Cc3ccc4ncc(-c5cnn(CC6CN(C(=O)OC(C)(C)C)C6)c5)cc4c3)n2n1 [compound 169] | < 100 nM | < 100 nM | 
N#Cc1cc(-c2ccc3nnc(Cc4ccc5ncccc5c4)n3n2)ccc1F [compound 69] | 100 to 1000 nM |  | 1000 to 10000 nM
CCCn1cc(-c2cnc3ccc(Cc4nnc5ccc(C)nn45)cc3c2)cn1 [compound 163] | < 100 nM | < 100 nM | 
c1cnc2ccc(Cc3nnc4ccc(N5CCCCC5)nn34)cc2c1 [compound 112] | 100 to 1000 nM |  | 100 to 1000 nM
Oc1ccc(Cc2nnc3ccc(-c4ccccc4)nn23)cc1 [compound 14] | 100 to 1000 nM |  | 1000 to 10000 nM
CS(=O)(=O)c1ccc(Oc2ccc3nnc(Cc4ccc5ncccc5c4)n3n2)cc1 [compound 12] | 1000 to 10000 nM |  | 10000 to 50000 nM
CS(=O)(=O)c1cccc(-c2ccc3nnc(Cc4ccc5ncccc5c4)n3n2)c1 [compound 49] | < 100 nM |  | < 100 nM
CNC(=O)c1ccc(-c2ccc3nnc(Cc4c(F)cc5ncccc5c4F)n3n2)cc1F [compound 89] | < 100 nM |  | < 100 nM
Cc1ccc2nnc(Cc3c(F)cc4ncc(Br)cc4c3F)n2n1 [compound 28] | 1000 to 10000 nM |  | 100 to 1000 nM
